The subject of this test is electrical stimulation induced occlusive aortic thrombosis. The experiment in a line: Thrombolytic activity in a rat model of electrical stimulation induced occlusive aortic thrombosis. The following applies: for Area under the curve (cm^2 ± s.e.m.): area under the blood flow trace; for Area under the curve (cm^2 ± s.e.m.) / Number of animals showing thrombolyis: n=8; for Thrombolytic activity (result in words): in the absence of exogenous plasminogen activators. In kind it is in vivo, CD rats. The protocol: The compounds which are usable according to the invention were studied in rats for their activity as thrombolytic agents in a model of electrical stimulation induced occlusive aortic thrombosis.
CD rats weighing 450 g to 500 g are anaesthetized with sodium pentobarbital (60 mg/kg i.p.) and the left renal artery is catheterized. Thrombosis is induced according to the method described by Hladovec (Throm. Haemosts. (1971), 26, 407-410). A segment of abdominal aorta approximately 1 cm in length is exposed between the renal artery and the iliac bifurcation, and an electromagnetic flow probe is placed around this segment to measure blood flow rate, and a bipolar electrode is placed downstream of the probe. After 15 minutes of stabilisation, a 5 mA direct current is applied for 5 minutes to the outer surface of the artery using a stimulator. When the flow rate reaches the zero value, previously determined by clamping the artery between the probe and the electrode, the time to formation of an occlusive thrombus is noted. After 5 minutes of stabilisation of the thrombus, the test compound or the vehicle is injected via the catheter as a 0.5 ml bolus followed by a 60 minute perfusion at 0.1 ml/min. The blood flow rate is recorded during the perfusion period. Thrombolysis is estimated by measuring the area under the blood flow trace, which reflects both the time to, and the extent of recanalisation. The results are expressed as a mean #standard error of the mean.
In animals receiving the vehicle, the abdominal aorta remains occluded throughout the period of administration. In contrast, direct acting thrombin inhibitors increase the area under the curve in a dose-dependent manner and rapidly restore blood flow.

Setting [1] is: dose 100 + 20 μg/kg + μg/kg/min.
The mark [2] stands for this setting: dose 100 + 20 μg/kg + μg/kg/min (bolus + 60 minute perfusion).
The mark [3] stands for this setting: dose 200 + 40 μg/kg + μg/kg/min.
The mark [4] stands for this setting: dose 200 + 40 μg/kg + μg/kg/min (bolus + 60 minute perfusion).
[5] abbreviates: dose 400 + 80 μg/kg + μg/kg/min.

For the compound `CC(=O)N[C@H](Cc1ccccc1)C(=O)N1CCC[C@H]1C(=O)N[C@@H](CCCN=C(N)N)B(O)O` [DUP714, Ac-(D-Phe)-Pro-boro-Arg-OH], the “Thrombolytic activity (result in words)” value is reported as “have shown thrombolytic activity”. Under setting [1], the “% Increase (area under the curve vs vehicle)” value (“% Increase” for short) came to 620% and the “Number of animals showing thrombolyis” value is recorded as 5. For the same compound, under setting [2], the “Area under the curve (cm^2 ± s.e.m.)” value was 339.7 ± 84.7 cm^2. Moreover, under setting [3], the “% Increase” value amounted to 667% and the “Number of animals showing thrombolyis” value was found to be 7. Moreover, under setting [4], the “Area under the curve (cm^2 ± s.e.m.)” value turned out to be 362.3 ± 61.1 cm^2. Moreover, under setting [5], the “% Increase” value is given as 1118% and the “Number of animals showing thrombolyis” value is reported as 8. Besides, under “dose 400 + 80 μg/kg + μg/kg/min (bolus + 60 minute perfusion)”, the “Area under the curve (cm^2 ± s.e.m.)” value turned out to be 575.3 ± 99.0 cm^2.

Take `CC1CNc2c(cccc2S(=O)(=O)N[C@@H](CCCNC(=N)N)C(=O)N2CC[C@@H](C)C[C@@H]2C(=O)O)C1` (stereo partly drawn) [Argatroban, argatroban]: the “Thrombolytic activity (result in words)” value is “have shown thrombolytic activity”. Where the note is “dose 25 + 5 μg/kg + μg/kg/min”, the “% Increase” value is 284% and the “Number of animals showing thrombolyis” value is recorded as 4. Also, the “Area under the curve (cm^2 ± s.e.m.)” value (dose 25 + 5 μg/kg + μg/kg/min (bolus + 60 minute perfusion)) is listed as 137.5 ± 45.6 cm^2. Moreover, under setting [1], the “% Increase” value is given as 406% and the “Number of animals showing thrombolyis” value is recorded as 3. Besides, the “Area under the curve (cm^2 ± s.e.m.)” value under setting [2] stood at 181.1 ± 99.6 cm^2. Besides, under setting [3], the “% Increase” value was 1186% and the “Number of animals showing thrombolyis” value was 7. Besides, the “Area under the curve (cm^2 ± s.e.m.)” value under setting [4] is reported as 460.3 ± 86.5 cm^2.

Regarding `NC(N)=NCCC[C@H](NC(=O)[C@@H]1CCCN1C(=O)[C@H](N)Cc1ccccc1)C(=O)CCl` [PPACK, D-Phe-Pro-Arg chloromethyl ketone], the “Thrombolytic activity (result in words)” value is listed as “have shown thrombolytic activity”. For the same compound, under “dose 50 + 10 μg/kg + μg/kg/min”, the “% Increase” value was determined as 572% and the “Number of animals showing thrombolyis” value is on record as 5. Besides, where the note is “dose 50 + 10 μg/kg + μg/kg/min (bolus + 60 minute perfusion)”, the “Area under the curve (cm^2 ± s.e.m.)” value is given as 291.7 ± 96.5 cm^2. Further, under setting [1], the “% Increase” value worked out at 556% and the “Number of animals showing thrombolyis” value was determined as 5. For the same compound, the “Area under the curve (cm^2 ± s.e.m.)” value under setting [2] is 284.8 ± 98.9 cm^2. Besides, under setting [3], the “% Increase” value amounted to 1148% and the “Number of animals showing thrombolyis” value was 7. Under setting [4], the “Area under the curve (cm^2 ± s.e.m.)” value worked out at 542.7 ± 75.2 cm^2.

Source of the values: patent US5583113A, “Use of a direct-acting thrombin inhibitor for the manufacture of a medicinal product having thrombolytic activity” (Synthelabo, priority 1992, dated 1996).
